Reference: US20030114512A1, “Compounds with 5-ht2 and 5-ht1a agonist activity for treating glaucoma” (priority 2002, published 2003)

How the values were obtained:
5-HT1A receptor = target: T1, 5-HT1A receptor (UniProt P08908); assay: 5-HT1A functional assays (inhibition of forskolin-stimulated adenylate cyclase / cAMP); format: biochemical; settings: for EC50: read-out: EC50, nM (SEM) 5-HT1A functional
T1 sequence (P08908 1-422): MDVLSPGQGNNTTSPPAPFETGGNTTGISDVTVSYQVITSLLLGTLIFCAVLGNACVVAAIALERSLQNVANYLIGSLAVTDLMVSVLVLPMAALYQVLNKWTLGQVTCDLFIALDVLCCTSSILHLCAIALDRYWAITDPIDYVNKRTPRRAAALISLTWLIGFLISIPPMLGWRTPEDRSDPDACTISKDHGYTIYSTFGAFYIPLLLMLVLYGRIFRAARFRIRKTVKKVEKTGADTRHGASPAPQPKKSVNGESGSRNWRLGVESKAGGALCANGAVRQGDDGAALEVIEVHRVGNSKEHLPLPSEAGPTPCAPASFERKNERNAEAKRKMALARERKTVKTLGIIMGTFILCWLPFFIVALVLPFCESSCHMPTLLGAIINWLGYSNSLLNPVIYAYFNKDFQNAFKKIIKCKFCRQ
Procedure: The function of Compounds of the present invention can be determined using a variety of methods to assess the functional activity of 5-HT1A agonists. One such assay is performed using hippocampal slices from male Sprague-Dawley rats, measuring the inhibition of forskolin-stimated adenylate cyclase [J. Med. Chem. 42. 36 (1999), J. Neurochem. 56, 1114 (1991), J. Pharm. Exper. Ther. 284:1082 (1998). Rat hippocampal membranes were homogenized in 25 volumes of 0.3 M sucrose containing 1 mM EGTA, 5 mM EDTA, 5 mM dithiothreitol, and 20 mM Tris-HCl, pH 7.4 at 25° C. The homogenate was centrifuged for 10 m in at 1,000×g. The supernatant subsequently was centrifuged at 39,000×g for 10 min. The resulting pellet was re-suspended in homogenization buffer at a protein concentration of approximately 1 mg/ml and aliquots were stored at −140° C. Prior to use, the membranes were rehomogenized in a Potter-Elvehjem homogenizer. Fifty μl of the membrane suspension (50 μg protein) were added to an incubation buffer containing 100 mM NaCl, 2 mM magnesium acetate, 0.2 mM ATP, 1 mM cAMP, 0.01 mM GTP, 0.01 mM forskolin, 80 mM Tris-HCl, 5 mM creatine phosphate, 0.8 U/μl creatine phosphokinase, 0.1 mM IBMX, 1-2 μCi α-[^32P]ATP. Incubations with test compounds (10 min at 30° C.) were initiated by the addition of the membrane solution to the incubation mixture (prewarmed 5 min at 30° C.). [^32P]cAMP was measured according to the method of Salomon (Adv. Cyclic Nucleotide Res. 10:35-55, 1979). Protein was measure using the Bradford (Anal. Biochem 72:248-254, 1976) assay.
Functional activity can also be determined in recombinant human receptors according to the method of Schoeffter et al., (Neuropharm. 36:429-437, 1997). HeLa cells transfected with recombinant human 5-HT1A receptors were grown to confluence in 24-well plates. The cells were rinsed with 1 ml of Hepes-buffered saline (in mM) NaCl 130, KCl 5.4, CaCl2, 1.8, MgSO4 0.8, NaH2PO4 0.9, glucose 25, Hepes 20, pH 7.4, and phenol red 5 mg/l. The cells were labelled with 6 μCi/ml of [^3H] adenine (23 Ci/mmol, Amersham, Rahn AG, Zurich, Switzerland) in 0.5 ml of saline at 37° C. for 2 hr. The plates were subsequently rinsed twice with 1 ml of buffered saline containing 1 mM isobutylmethylxanthine. The cells were incubated for 15 min in 1 ml of this solution (37° C.) in the presence or absence of 10 μM forskolin and the test compound. The buffer was then removed and 1 ml of 5% trichloroacetic acid (TCA) containing 0.1 mM cAMP and 0.1 mM ATP was added to extract the samples. After 30 min at 4° C., the TCA extracts were subjected to chromatographic separation on Dowex AG 50W-X4 and alumina columns (Salomon, Methods in Enzymology 195: 22-28, 1991). Cyclic AMP production was calculated as the ratio [^3H]cAMP/([^3H]cAMP+[^3H]ATP).

[1] = test system: photooxidative induced retinopathy; assay: Neuroprotective effects in the rat photooxidative induced retinopathy model (ERG); format: in vivo, Sprague Dawley rat; settings: for A-wave Amplitude Mean / B-wave Amplitude Mean: ERG after five day recovery
Procedure: Neuroprotective Effects in the Rat Photooxidative Induced Retinopathy Model
Male Sprague Dawley rats were randomly assigned to vehicle treatment (saline) or drug treatment (dissolved in saline) experimental groups. α-methyl-5-hydroxytryptamine (1, 5, and 10 mg/kg) or vehicle was administered by subcutaneous (SC) injection at 48, 24, and 0 hours prior to light exposure and once 24 hours after a 6-hour light exposure to spectrally filtered blue light (˜220 fc). Control rats were housed in their home cage under normal cyclic light exposure. Rats were single housed in clear polycarbonate cages during this light exposure.
The electroretinogram (ERG) was recorded after a five day recovery period from dark-adapted anesthetized rats (Ketamine-HCl, 75 mg/Kg; Xylazine, 6 mg/Kg). The eye's electrical response to a flash of light was elicited by viewing a ganzfeld. ERGs to a series of light flashes increasing in intensity were digitized to analyze temporal characteristics of the waveform and determine the response voltage-log intensity (VlogI) relationship. Changes in the ERG a-wave are associated with photoreceptor and retinal pigment epithelium damage while damage to the inner retina is reflected in changes in the ERG b-wave.

Structure (SMILES): CC(N)Cn1ccc2ccc(O)cc21.O=C(O)/C=C/C(=O)O (stereo not drawn) [1-(2-aminopropyl) 6-hydroxyindole fumarate]
- Efficacy (Emax, %) 5-HT1A functional (5-HT1A receptor): 89%
- EC50 (5-HT1A receptor): 780 nM

Structure (SMILES): COc1ccc2[nH]cc(CC(C)N)c2c1.O=C(O)/C=C/C(=O)O (stereo not drawn) [α-Methyl 5-methoxytryptamine fumarate]
- Efficacy (Emax, %) 5-HT1A functional (5-HT1A receptor): 92%
- EC50 (5-HT1A receptor): 570 nM

Structure (SMILES): CC(N)Cc1c[nH]c2ccc(O)cc12.O=C(O)/C=C\C(=O)O (stereo not drawn) [α-Methyl 5-hydroxytryptamine maleate, 3-(2-aminopropyl)-1H-indol-5-ol]
- Maximum a- and b-wave response amplitudes compared with vehicle dosed rats ([1]; 1.0 mg/kg): not significantly different than vehicle dosed rats
- Maximum a- and b-wave response amplitudes, % of control animals ([1]; 1.0 mg/kg): approximately 30%
- A-wave Amplitude Mean ([1]; 1.0 mg/kg SC): 237.8 μV
- B-wave Amplitude Mean ([1]; 1.0 mg/kg SC): 555 μV
- A-wave Amplitude Mean ([1]; 5.0 mg/kg SC): 471.93 μV
- B-wave Amplitude Mean ([1]; 5.0 mg/kg SC): 1123 μV
- A-wave Amplitude Mean ([1]; 10.0 mg/kg SC): 477.7 μV
- B-wave Amplitude Mean ([1]; 10.0 mg/kg SC): 1126 μV
- Protection of retina function against photo-oxidative induced retinopathy ([1]; 1, 5 and 10 mg/kg SC): dose-dependent protection of outer and inner retina function
- Maximum a- and b-wave response amplitudes compared with vehicle dosed rats ([1]; 5 and 10 mg/kg): significantly higher than responses measured in vehicle dosed rats
- Maximum a-wave response amplitude, % of control animals ([1]; 5 and 10 mg/kg, first of 'respectively' values): approximately 58%
- Maximum b-wave response amplitude, % of control animals ([1]; 5 and 10 mg/kg, second of 'respectively' values): ~62%
- Efficacy (Emax, %) 5-HT1A functional (5-HT1A receptor): 100%
- EC50 (5-HT1A receptor): 378 nM
